From patent US8932597B2 (priority 2008, dated 2015)

Legend:
HuM2e antibody 23K12 = type: binding, human
[1] = system: anti-M2 human monoclonal antibody Z3G1; type: binding

| Substance | Signal (peptides that bind to 23K21 and 8I10) (HuM2e antibody 23K12) | Signal (peptides that show specific binding to Z3G1) [1] | Signal (peptides that bind to Z3G1) [1] |
| --- | --- | --- | --- |
| 714 (SLLTEVETPIRNEWCCRCNDSSD; epitope peptide) [compound 714] | 704 | 2388 |  |
| 447 (SLLTEVETPIRNEWGCRCNDS; epitope peptide) [compound 447] | 817 |  | 2348 |
| 484 (SLVTEVETPIRNEWGCRCNDSSD; epitope peptide) [compound 484] | 1175 | 2029 |  |
| 215 (CSLLTEVETCLTEVETPIRNEWGSRC; epitope peptide) [compound 215] | 958 | 2328 |  |
| 375 (SLLTEVETPIRNEWGCRVNDSSD; epitope peptide) [compound 375] | 1446 | 2316 |  |
| 434 (SLLTEVETPIRNEWGCRCNDSYD; epitope peptide) [compound 434] | 862 |  | 2479 |
| 665 (SLLTEVETPFRNEWGCRCNDSSD; epitope peptide) [compound 665] | 745 | 2229 |  |
| 431 (SLLTEVETPIRNEWGCRCNDSTD; epitope peptide) [compound 431] | 701 |  | 2205 |
| 512 (SLLTEVETPIRNQWGCRCNDSSD; epitope peptide) [compound 512] | 1039 | 2402 |  |
| 592 (MSLCTEVGCSLLTEC; epitope peptide) [compound 592] | 840 |  | 1971 |
| 606 (SLLTEVETQIRNEWGCRCNDSSD; epitope peptide) [compound 606] | 819 | 2189 |  |
| 599 (SLLTEVERPIRNEWGCRCNDSSD; epitope peptide) [compound 599] | 834 | 2131 |  |
| 491 (SLLTEVETLIRNEWGCRCNDSSD; epitope peptide) [compound 491] | 1109 | 2225 |  |
| 339 (MSLLTECGMSLLTEV; epitope peptide) [compound 339] | 1658 |  | 2170 |
| 585 (SLLTEVETPIRLEWGCRCNDSSD; epitope peptide) [compound 585] | 853 | 2468 |  |
| 555 (SLLTEVETPIRNEWGCRCWDSSD; epitope peptide) [compound 555] | 901 |  | 2462 |
| 593 (SLLTEVEIPIRNEWGCRCNDSSD; epitope peptide) [compound 593] | 839 | 2365 |  |
| 414 (SLLTEVETPIRNEWGCRCNDQSD; epitope peptide) [compound 414] | 739 |  | 2349 |
| 716 (SLLTEVETPIRNEFGCRCNDSSD; epitope peptide) [compound 716] | 702 | 2444 |  |

| Substance | Signal (peptides that bind to 23K21 and 8I10) (HuM2e antibody 23K12) | Signal (peptides that show specific binding to Z3G1) [1] | Signal (peptides that bind to Z3G1) [1] |
| --- | --- | --- | --- |
| 542 (MSLCTEVGMSLLTCV; epitope peptide) [compound 542] | 927 |  | 2722 |
| 503 (SLLTEVETPIRNEWGCWCNDSSD; epitope peptide) [compound 503] | 1061 | 2437 |  |
| 648 (SLLTEVETPIRNEWGKRCNDSSD; epitope peptide) [compound 648] | 762 | 2295 |  |
| 448 (SLLTEVETPIRNEWGCRCNDSS; epitope peptide) [compound 448] | 833 |  | 2325 |
| 349 (SLATEVETPIRNEWGCRCNDSSD; epitope peptide) [compound 349] | 1583 | 2145 |  |
| 565 (SLLTEVETPIRVEWGCRCNDSSD; epitope peptide) [compound 565] | 884 | 2300 |  |
| 304 (MSLCTEVGMSLLCEV; epitope peptide) [compound 304] | 1935 |  | 2616 |
| 381 (SLLQEVETPIRNEWGCRCNDSSD; epitope peptide) [compound 381] | 1399 | 2432 |  |
| 127 (CSLLTEVETCSLLTEVETC; epitope peptide) [compound 127] | 1647 | 2555 |  |
| 314 (SLLTEVGSLLCEV; epitope peptide) [compound 314] | 1834 | 2392 |  |
| 286 (CSLLTEVGMSLLTCV; epitope peptide) [compound 286] | 2311 |  | 2768 |
| 647 (SLLTEVETPIRNEWGHRCNDSSD; epitope peptide) [compound 647] | 763 | 2113 |  |
| 226 (CTEVETPIRNEWGSRSCSLLTEVETC; epitope peptide) [compound 226] | 891 | 2140 |  |
| 264 (CSLLTEVETCVETPIRNEWGSRSNDC; epitope peptide) [compound 264] | 707 | 2374 |  |
| 687 (SLLTEVETPCRNEWGCRCNDSSD; epitope peptide) [compound 687] | 724 | 2050 |  |
| 409 (SLLTEVETPIRNEWGCRCNDKSD; epitope peptide) [compound 409] | 898 |  | 2484 |
| 685 (SLLTEVETPIRNVWGCRCNDSSD; epitope peptide) [compound 685] | 728 | 2281 |  |
| 353 (SLLTEVGCSLLTEC; epitope peptide) [compound 353] | 1556 | 2380 |  |
| 598 (SLLTEVETPIRNEWGCRKNDSSD; epitope peptide) [compound 598] | 835 | 2435 |  |

| Substance | Signal (peptides that bind to 23K21 and 8I10) (HuM2e antibody 23K12) | Signal (peptides that show specific binding to Z3G1) [1] | Signal (peptides that bind to Z3G1) [1] |
| --- | --- | --- | --- |
| 570 (MCLLTEVGCSLLTEV; epitope peptide) [compound 570] | 875 |  | 2717 |
| 688 (SLLTEVETPIRNETGCRCNDSSD; epitope peptide) [compound 688] | 724 | 2401 |  |
| 611 (SLLTEVETRIRNEWGCRCNDSSD; epitope peptide) [compound 611] | 813 | 2159 |  |
| 446 (SLLTEVETPIRNEWGCRCND; epitope peptide) [compound 446] | 738 |  | 2276 |
| 506 (SLCTEVGSLLCEV; epitope peptide) [compound 506] | 1050 | 1863 |  |
| 615 (SLLTEVETPIRNEWGCDCNDSSD; epitope peptide) [compound 615] | 810 | 2207 |  |
| 421 (SLLTEVETPIRNEWGCRCNDSED; epitope peptide) [compound 421] | 944 |  | 2527 |
| 465 (SLLTEVETPIRNEWGCRCNKSSD; epitope peptide) [compound 465] | 1254 |  | 2597 |
| 450 (SLLTEVEHPIRNEWGCRCNDSSD; epitope peptide) [compound 450] | 1331 | 2241 |  |
| 346 (SLLMEVETPIRNEWGCRCNDSSD; epitope peptide) [compound 346] | 1616 | 2477 |  |
| 213 (CETPIRNEWGSRSNDSCSLLTEVETC; epitope peptide) [compound 213] | 971 | 1997 |  |
| 460 (MSLLTECGMSLLCEV; epitope peptide) [compound 460] | 1268 |  | 2373 |
| 702 (SLLTEVETPIRNYWGCRCNDSSD; epitope peptide) [compound 702] | 714 | 2311 |  |
| 395 (SLLTEVETPIRNEWGCRCNNSSD; epitope peptide) [compound 395] | 926 |  | 2502 |
| 584 (SLLTEVETPIRNEWGCRRNDSSD; epitope peptide) [compound 584] | 855 | 2383 |  |
| 694 (SLLTEVETPIRNEWGCRCNESSD; epitope peptide) [compound 694] | 720 |  | 2282 |
| 371 (MSLCTEVGMSLLTEV; epitope peptide) [compound 371] | 1468 |  | 2691 |
| 700 (SLLTEVETSIRNEWGCRCNDSSD; epitope peptide) [compound 700] | 715 | 2151 |  |
| 656 (SLLTEVETPIWNEWGCRCNDSSD; epitope peptide) [compound 656] | 753 | 2250 |  |
